Results reported in PubChem BioAssay AID248 (DTP/NCI, 2004).
“And” between values parts separate entries of the source, which are not always exact repeats. Identical values can stand only once. Toxic doses and inconclusive results are not listed. No stated cut-off is given here; in the data, active means T/C of 150% or more; inactive means T/C below 125%.

Tested on: L1210 leukemia ip in BDF1 mice, survival T/C
Experiment: NCI In Vivo Anticancer Drug Screen. Data for tumor model L1210 Leukemia (intraperitoneal) in B6D2F1 (BDF1) mice
Settings: endpoint: mean survival time, higher = longer survival
In short: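 Antitumor effect is assessed in tumor-bearing animals. Survival in the compound arm is compared with a vehicle-dosed control arm and expressed as their quotient.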

[1] = dose: 100.0 mg/kg/injection, schedule: Q04DX003 (ip), vehicle: Klucel (hydroxypropylcellulose) (HPC)
[2] = dose: 200.0 mg/kg/injection, schedule: Q04DX003 (ip), vehicle: Klucel (hydroxypropylcellulose) (HPC)
[3] = dose: 400.0 mg/kg/injection, schedule: Q04DX003 (ip), vehicle: Klucel (hydroxypropylcellulose) (HPC)
[4] = dose: 100.0 mg/kg/injection, schedule: Q01DX009 (ip), vehicle: Klucel (hydroxypropylcellulose) (HPC)
[5] = dose: 200.0 mg/kg/injection, schedule: Q01DX009 (ip), vehicle: Klucel (hydroxypropylcellulose) (HPC)
[6] = dose: 25.0 mg/kg/injection, schedule: Q01DX009 (ip), vehicle: saline
[7] = dose: 100.0 mg/kg/injection, schedule: Q01DX009 (ip), vehicle: saline
[8] = dose: 50.0 mg/kg/injection, schedule: Q01DX001 (ip), vehicle: saline
[9] = dose: 100.0 mg/kg/injection, schedule: Q01DX001 (ip), vehicle: saline
[10] = dose: 200.0 mg/kg/injection, schedule: Q01DX001 (ip), vehicle: saline
[11] = dose: 400.0 mg/kg/injection, schedule: Q01DX001 (ip), vehicle: saline
[12] = dose: 400.0 mg/kg/injection, schedule: Q01DX009 (ip), vehicle: Klucel (hydroxypropylcellulose) (HPC)

Measured: T/C

Cc1ccccc1N=C(N)Nc1ccccc1C
inactive: dose: 2.5 mg/kg/injection, schedule: Q01DX009 (ip), vehicle: saline with Tween-80 103 % of control | dose: 5.0 mg/kg/injection, schedule: Q01DX001 (ip), vehicle: carboxymethylcellulose (CMC) 108 % of control | dose: 5.0 mg/kg/injection, schedule: Q01DX009 (ip), vehicle: saline with Tween-80 97 % of control | dose: 6.25 mg/kg/injection, schedule: Q01DX009 (ip), vehicle: other 95 % of control | dose: 6.25 mg/kg/injection, schedule: Q04DX003 (ip), vehicle: other 96 % of control | dose: 10.0 mg/kg/injection, schedule: Q01DX001 (ip), vehicle: carboxymethylcellulose (CMC) 114 % of control | dose: 10.0 mg/kg/injection, schedule: Q01DX009 (ip), vehicle: saline with Tween-80 97 % of control | dose: 12.5 mg/kg/injection, schedule: Q01DX001 (ip), vehicle: other 96 % of control | dose: 12.5 mg/kg/injection, schedule: Q01DX009 (ip), vehicle: other 95 % of control | dose: 12.5 mg/kg/injection, schedule: Q04DX003 (ip), vehicle: other 93 % of control | dose: 20.0 mg/kg/injection, schedule: Q01DX001 (ip), vehicle: carboxymethylcellulose (CMC) 117 % of control | dose: 25.0 mg/kg/injection, schedule: Q01DX001 (ip), vehicle: other 96 % of control | dose: 25.0 mg/kg/injection, schedule: Q01DX009 (ip), vehicle: other 94 % of control | dose: 25.0 mg/kg/injection, schedule: Q04DX003 (ip), vehicle: other 100 % of control

c1ccc2c(c1)ccc1oc3ccc4ccccc4c3c12
inactive: dose: 18.75 mg/kg/injection, schedule: Q04DX003 (ip), vehicle: Klucel (hydroxypropylcellulose) (HPC) 97 % of control | dose: 37.5 mg/kg/injection, schedule: Q04DX003 (ip), vehicle: Klucel (hydroxypropylcellulose) (HPC) 97 % of control and 98 % of control | dose: 75.0 mg/kg/injection, schedule: Q04DX003 (ip), vehicle: Klucel (hydroxypropylcellulose) (HPC) 101 % of control and 103 % of control | [1] 103 % of control | dose: 150.0 mg/kg/injection, schedule: Q04DX003 (ip), vehicle: Klucel (hydroxypropylcellulose) (HPC) 104 % of control | [2] 97 % of control | [3] 101 % of control

COc1ccc(OCCOC(=O)Nc2ccc(C)cc2[N+](=O)[O-])cc1
inactive: dose: 50.0 mg/kg/injection, schedule: Q01DX009 (ip), vehicle: Klucel (hydroxypropylcellulose) (HPC) 97 % of control | [4] 90 % of control | [1] 103 % of control | [5] 90 % of control | [2] 103 % of control | [3] 100 % of control

CC(=O)CC(=O)Nc1ccccc1Cl
inactive: [1] 89 % of control | [2] 92 % of control | [3] 96 % of control

CC(C)CCN=C(N)N=C(N)N
inactive: [6] 105 % of control | dose: 50.0 mg/kg/injection, schedule: Q01DX009 (ip), vehicle: saline 107 % of control | [7] 104 % of control | dose: 100.0 mg/kg/injection, schedule: Q04DX002 (ip), vehicle: saline 100 % of control

Oc1cccc2ccc(N/N=C/c3ccnc4c(O)cccc34)nc12
inactive: dose: 100.0 mg/kg/injection, schedule: Q01DX001 (ip), vehicle: carboxymethylcellulose (CMC) 93 % of control | dose: 200.0 mg/kg/injection, schedule: Q01DX001 (ip), vehicle: carboxymethylcellulose (CMC) 96 % of control | dose: 400.0 mg/kg/injection, schedule: Q01DX001 (ip), vehicle: carboxymethylcellulose (CMC) 91 % of control

CC(=O)OC1CCC2(C)C(C1)CC(OC(C)=O)C1C2CCC2(C)C(C(C)CCC(=O)O)CCC12 (configuration not stated)
inactive: dose: 100.0 mg/kg/injection, schedule: Q01DX001 (ip), vehicle: saline with Tween-80 92 % of control | dose: 200.0 mg/kg/injection, schedule: Q01DX001 (ip), vehicle: saline with Tween-80 97 % of control | dose: 400.0 mg/kg/injection, schedule: Q01DX001 (ip), vehicle: saline with Tween-80 92 % of control

O=C1CC2CCCCC2c2ccccc21 (configuration not stated)
inactive: dose: 12.5 mg/kg/injection, schedule: Q01DX001 (ip), vehicle: saline 114 % of control | dose: 25.0 mg/kg/injection, schedule: Q01DX001 (ip), vehicle: saline 102 % of control | [8] 100 % of control

COc1ccc(CN2CCCN(Cc3ccc(OC)cc3OC)C2c2cc(Cl)cc(Cl)c2O)c(OC)c1
inactive: [8] 92 % of control | [9] 97 % of control | [10] 92 % of control | [11] 90 % of control

COc1n[n+]([O-])c(Cl)c(C)c1[N+](=O)[O-]
inactive: dose: 100.0 mg/kg/injection, schedule: Q04DX002 (ip), vehicle: saline with Tween-80 105 % of control | dose: 200.0 mg/kg/injection, schedule: Q04DX002 (ip), vehicle: saline with Tween-80 102 % of control | dose: 400.0 mg/kg/injection, schedule: Q04DX002 (ip), vehicle: saline with Tween-80 96 % of control

Oc1cc(Br)ccc1C=Nc1ccc(N2CCCCC2)cc1
inactive: [4] 92 % of control | [1] 100 % of control | [5] 94 % of control | [2] 101 % of control | [12] 89 % of control | [3] 103 % of control

COc1ccc(C(=O)CCCCl)cc1
inactive: [4] 102 % of control | [1] 107 % of control | [5] 102 % of control | [2] 96 % of control | [12] 89 % of control | [3] 102 % of control

CCOC(=O)/C=C(\C)N1CCCCC1
inactive: [7] 104 % of control | dose: 200.0 mg/kg/injection, schedule: Q01DX009 (ip), vehicle: saline 100 % of control

CCC(NC(=O)c1cnc2ccccc2n1)C(=O)O (configuration not stated)
inactive: dose: 100.0 mg/kg/injection, schedule: Q04DX003 (ip), vehicle: saline 101 % of control | dose: 200.0 mg/kg/injection, schedule: Q04DX003 (ip), vehicle: saline 92 % of control | dose: 400.0 mg/kg/injection, schedule: Q04DX003 (ip), vehicle: saline 90 % of control

O=S(=O)(Nc1cc(Cl)c(NS(=O)(=O)c2ccccc2)c(S(=O)(=O)c2ccccc2)c1Cl)c1ccccc1
inactive: dose: 100.0 mg/kg/injection, schedule: Q01DX001 (ip), vehicle: Klucel (hydroxypropylcellulose) (HPC) 97 % of control | [1] 101 % of control | dose: 200.0 mg/kg/injection, schedule: Q01DX001 (ip), vehicle: Klucel (hydroxypropylcellulose) (HPC) 93 % of control | [2] 102 % of control | dose: 400.0 mg/kg/injection, schedule: Q01DX001 (ip), vehicle: Klucel (hydroxypropylcellulose) (HPC) 97 % of control | [3] 106 % of control

O=C1c2ccccc2CC1(Br)C(Br)c1ccccc1 (configuration not stated)
inactive: dose: 100.0 mg/kg/injection, schedule: Q01DX009 (ip), vehicle: saline sonified 99 % of control | dose: 100.0 mg/kg/injection, schedule: Q01DX009 (ip), vehicle: saline with Tween-80 96 % of control | [1] 104 % of control | dose: 100.0 mg/kg/injection, schedule: Q04DX003 (ip), vehicle: saline with Tween-80 107 % of control | dose: 200.0 mg/kg/injection, schedule: Q01DX009 (ip), vehicle: saline sonified 95 % of control | dose: 200.0 mg/kg/injection, schedule: Q01DX009 (ip), vehicle: saline with Tween-80 91 % of control | [2] 101 % of control | dose: 200.0 mg/kg/injection, schedule: Q04DX003 (ip), vehicle: saline with Tween-80 103 % of control | dose: 400.0 mg/kg/injection, schedule: Q01DX009 (ip), vehicle: saline sonified 94 % of control | dose: 400.0 mg/kg/injection, schedule: Q01DX009 (ip), vehicle: saline with Tween-80 89 % of control | [3] 98 % of control | dose: 400.0 mg/kg/injection, schedule: Q04DX003 (ip), vehicle: saline with Tween-80 104 % of control

COc1nc(OC)n(C)c(=O)c1OP(=O)(OC)OC
inactive: [8] 98 % of control | [9] 93 % of control | [10] 93 % of control | [11] 95 % of control

CCc1ccccc1NC(=O)Sc1ccccc1O
inactive: dose: 6.25 mg/kg/injection, schedule: Q01DX009 (ip), vehicle: saline with Tween-80 105 % of control | dose: 12.5 mg/kg/injection, schedule: Q01DX009 (ip), vehicle: saline with Tween-80 105 % of control | dose: 25.0 mg/kg/injection, schedule: Q01DX009 (ip), vehicle: saline with Tween-80 93 % of control and 102 % of control

OCC1OC(Nc2ncnc3c2ncn3C2OC(CO)C(O)C2O)C(O)C1O (configuration not stated)
inactive: dose: 12.5 mg/kg/injection, schedule: Q01DX005 (ip), vehicle: saline 96 % of control | dose: 12.5 mg/kg/injection, schedule: Q01DX009 (ip), vehicle: saline 100 % of control | dose: 25.0 mg/kg/injection, schedule: Q01DX005 (ip), vehicle: saline 104 % of control | [6] 103 % of control | dose: 50.0 mg/kg/injection, schedule: Q01DX005 (ip), vehicle: saline 117 % of control
